Patent US7235534B2, “Antisense strategy to modulate estrogen receptor response (ER α and/or ER β )” (Institut de Cardiologie de Montreal, priority 2001, dated 2007)

Tests used:
p38 MAPK = assay: Western blot of p38 MAPK phosphorylation in PAEC; type: cell-based, porcine; conditions: for inhibition of p38 MAPK phosphorylation induced by a 30 minutes treatment with 17βE: antagonist 10^−7M 5 min prior to 17βE 10^−8M
Protocol: Confluent PAEC and PSMC were starved for 7 hours in DMEM and antibiotics. Culture medium was removed, and cells were rinsed twice with ice-cold DMEM. PSMC were incubated on ice in DMEM with or without 17βE (10^−8M) for 30 min, incubated at 37° C. for 5, 10, 15 and 30 min, then brought back on ice. Cell were then rinsed with cold DMEM, incubated on ice in DMEM, bovine serum albumin (1 mg/ml), PDGF-BB (10 ng/ml) for 30 min, incubated at 37° C. for 5 min, and then brought back on ice. PAEC were incubated on ice in DMEM with or without 17βE (10^−7M) for 30 min, then incubated at 37° C. for 5, 10, 15 and 30 min and brought back on ice. […] Total proteins were prepared by the addition of 500 μl of lysis buffer containing phenylmethylsulfonyl fluoride 1 mM, leupeptin 10 μg/ml, aprotinin 30 μg/ml, and NaVO3 1 mM (Sigma). Plates were incubated at 4° C. for 30 min and scraped, and the protein concentration was determined with a Bio-Rad protein kit (Bio-Rad, Hercules, Calif.). Same protein quantity for each cell type and condition were dissolved in Laemmli's buffer, boiled for 5 min in reducing conditions, separated by a 10% gradient SDS-PAGE (Protean II kit; Bio-Rad), and transblotted onto a 0.45-μm polyvinylidene difluoride membranes (Millipore Corp., Bedford, Mass.). The membranes were blocked in 5% Blotto-TTBS (5% nonfat dry milk; Bio-Rad), 0.05% Tween 20, 0.15 M NaCl, 25 mM Tris-HCl, pH 7.5) for 1 h at room temperature with gentle agitation and incubated overnight at 4° C. in 0.5% Blotto-TTBS with the addition of an anti-phospho p42/44 MAPK or an anti-phospho p38 MAPK rabbit polyclonal antiserums (α-pp42/44; dilution of 1:10 000, and α-pp38; dilution 1:5000, New England BioLabs, Beverly, Mass.). Membranes were washed with TTBS, and incubated at room temperature with an anti-rabbit IgG antibody coupled to horseradish peroxidase (dilution 1:10 000–1:20 000, Santa Cruz Biotechnology, Santa Cruz, Calif.) in 0.5% Blotto-TTBS for 30 min. […] Kaleidoscope molecular weight and SDS-plyacrylamide gel electrophoresis broad range marker proteins (Bio-Rad) were used as standards for SDS-plyacrylamide gel electrophoresis. Digital image densitometry (PDI Bioscience, Aurora, ON) was performed on x-ray film to determine relative percentages of p42/44 and p38 MAPK phosphorylation.
Confluent PAEC and PSMC were preteated with or without antisense sequences as described above for Western Blot analysis. Cells were rinsed twice with ice-cold DMEM. PSMC and PAEC were stimulated with or without 17βE (10^−8 mol/L) as previously described (Geraldes P). Briefly, PSMC were incubated on ice in DMEM with or without 17βE (10^−8 mol/L) for 30 minutes, incubated at 37° C. for 30 minutes, then brought back on ice. Cells were then rinsed with cold DMEM, incubated on ice in DMEM, bovine serum albumin (1 mg/mL), PDGF-BB (10 ng/mL) for 30 minutes, incubated at 37° C. for 5 and 30 minutes, and then brought back on ice. PAEC were incubated on ice in DMEM with or without 17βE (10^−8 mol/L) for 30 minutes, then incubated at 37° C. for 5 and 30 minutes and brought back on ice. Total proteins were prepared-by the addition of 500 μL of lysis buffer, incubated at 4° C. for 30 minutes and scraped to collect the proteins. Same quantity of protein was separated by a 10% gradient SDS-PAGE (Protean II kit; Bio-Rad), and transblotted onto a 0.45-μm polyvinylidene difluoride membranes (Millipore Corp.). […]

[1] = test system: Porcine smooth muscle cells (PSMC); assay: Chemotactic assay on PSMC (modified Boyden chamber); type: cell-based; conditions: for reversal of the anti-chemotactic effect of 17βE on PSMC: antagonist 10^−7M before 17βE 10^−8M, PDGF-BB 10 ng/ml
Protocol: Cell migration was evaluated using a modified Boyden 48-well microchamber kit (NeuroProbe, Cabin John, MD.). Near confluent EC and PSMC were rinsed with DMEM and trypsinized. Cells were resuspended in DMEM, 5% FBS, and antibiotics, and a cell count was obtained. […] ER antagonists were added 5 minutes before 17βE. Cells were harvested by trypsinization and resuspended in DMEM, 1% FBS, and antibiotics at a concentration of 5×10^5 cells/ml. […] The two sections of the system were separated by a porous polycarbonate filter (5-μm pores), pre-treated with a gelatine solution (1.5 mg/ml), and assembled. Five hours post incubation at 37° C., the nonmigrated cells were scraped with a plastic policeman, and the migrated cells were stained using a Quick-Diff solution. The filter was then mounted on a glass slide, and migrated cells were counted using a microscope adapted to a video camera to obtain a computer-digitized image.
Cell migration was evaluated using a modified Boyden 48-well microchamber kit (NeuroProbe, Cabin John, MD.). Near confluent PAEC and PSMC were rinsed with DMEM and trypsinized. Cells were resuspended in DMEM, 5% FBS, and antibiotics, and a cell count was obtained. PAEC and PSMC were seeded at 2.5×10^5 cells/well of 6-well tissue culture plates; stimulated for 24 hours in DMEM, 5% FBS, and antibiotics with or without antisense oligomers (10^−6 mol/L) and starved for 48 hours in DMEM, 0.1% FBS, and antibiotics with or without antisense oligomers (10^−6 mol/L daily) with or without 17βE (10^−8 mol/L). Cells were harvested by trypsinization and resuspended in DMEM, 1% FBS, and antibiotics at a concentration of 5×10^5 cells/mL. Fifty μL of this cell suspension with or without antisense oligomers (10^−6 mol/L) treated with or without 17βE (10^−8 mol/L) was added in the higher-chamber of the modified Boyden chamber apparatus, and the lower chamber was filled with DMEM, 1% FBS, antibiotics plus the desired concentration of agonist either 17βE (10^−8 mol/L) or platelet-derived growth factor-BB (PDGF-BB). The 2 sections of the system were separated by a porous polycarbonate filter (5-μm pores size), pretreated with a gelatine solution (1.5 mg/mL), and assembled. Five hours postincubation at 37° C., the non-migrated cells were scraped with a plastic policeman, and the migrated cells were stained using a Quick-Diff solution (Shandon Inc). The filter was then mounted on a glass slide, and migrated cells were counted using a microscope adapted to a video camera to obtain a computer-digitized image.

Structure (SMILES): O=C(c1ccc(OCN2CCCCC2)cc1)c1c(-c2ccc(O)cc2)sc2cc(O)ccc12 [Ral, Raloxifen]
- inhibition of p38 MAPK phosphorylation induced by a 30 minutes treatment with 17βE (p38 MAPK): 98%
- reversal of the anti-chemotactic effect of 17βE on PSMC [1]: reversed completely

Structure (SMILES): CC/C(=C(\c1ccc(O)cc1)c1ccc(OCCN(C)C)cc1)c1ccccc1 [4-OHT, 4-OH-Tamoxifen]
- inhibition of p38 MAPK phosphorylation induced by a 30 minutes treatment with 17βE (p38 MAPK): 81%
- reversal of the anti-chemotactic effect of 17βE on PSMC [1]: reversed completely

Structure (SMILES): C[C@]12CC[C@@H]3c4ccc(O)cc4CC[C@H]3[C@@H]1CC[C@@H]2O [17βE, 17-beta-estradiol]
- time of maximum stimulation of p38 MAPK phosphorylation (p38 MAPK; 17βE 10^−8M): 30 min
- increase of p38 MAPK phosphorylation (p38 MAPK; 17βE 10^−8 mol/L, 30 minutes, Example 2): 254%
- inhibition of the chemotactic effect of PDGF-BB (10 ng/mL) on PSMC ([1]; 17βE 1^−8 mol/L as printed, Example 2): inhibited completely
- inhibition of the chemotactic effect of PDGF-BB (10 ng/ml) on PSMC ([1]; 17βE 10^−8M, Example 1): inhibited completely

Structure (SMILES): CC/C(=C(\c1ccccc1)c1ccc(OCCN(C)C)cc1)c1ccccc1 [Tam, Tamoxifen]
- inhibition of p38 MAPK phosphorylation induced by a 30 minutes treatment with 17βE (p38 MAPK): 84%
- reversal of the anti-chemotactic effect of 17βE on PSMC [1]: reversed completely
